In patent US20240041796A1, “ANTI-INFLAMMATORY COMPOSITION COMPRISING N-BENZYL-N-METHYLDECAN-1-AMINE OR A DERIVATIVE THEREOF AS AN ACTIVE INGREDIENT” (PUSAN NATIONAL UNIVERSITY INDUSTRY-UNIVERSITY COOPERATION …, priority 2022, published 2024):

Tests used:
[1] = test system: THP-1 cell line; assay: LPS-induced signaling pathway in THP-1 cells pretreated with FMJ-G0 derivatives; assay type: cell-based, human; settings: pretreated 4 μM 1 hour, LPS 1 μg/mL 4 hours; FIG. 8B
Method: Thereafter, the THP-1 cell line was pretreated with the synthesized FMJ-G0 derivatives FMJ-G1, FMJ-G2, and FMJ-G3 at a concentration of 4 μM for 1 hour. Lipopolysaccharide (1 μg/mL) was added to a culture medium in which the THP-1 cell line was cultured for 4 hours. The same cell line was collected, and a signaling pathway involved in inflammatory cytokine synthesis was identified, and the result is shown in FIG. 8B.

[2] = test system: Balb/C mice; assay: DNCB-induced atopic dermatitis model, cosmetic cream applied to the skin; assay type: in vivo, mouse; settings: for DNCB-induced atopic dermatitis (level of dermatitis): cosmetic cream (0.3% active; Lidomax ointment 0.15%) applied to the back for 2 weeks, FIG. 9A, 9C
Method: Wed added 0.3 g of olive wax to 2 mL of soybean oil (Sigma-Aldrich) in a glass tube (15 ml), and put the tube in a 75° C. water-bath, and performed a double boiling thereon to melt the olive wax for 30 minutes while vortexing the tube at 10 minute interval. Under the same conditions, 7.7 ml of purified water was put into a 75° C. water-bath and heated the same for 30 minutes. Next, 7.5 ml of purified water was poured into the tube containing the olive wax and the mixture was stirred well via vortexing. Then, […] (0.3%) of each of BMDA and derivatives thereof (FMJ-G0, FMJ-G4, FMJ-G1, FMJ-G2, FMJ-G3) as synthesized in Examples 1 and 3 were added to the mixture, followed by stirring. The reaction product was cooled in ice and prepared in the form of a cosmetic cream.
In order to induce atopic dermatitis using 5-week-old Balb/C mice, hair on the back of the mouse was removed therefrom, and after one day, a 0.5% solution in which DNCB (2,4-dinitrochlorobenzne) is mixed with acetone and olive oil (3:1) was prepared, and then was applied thereon for 3 consecutive days by 150 μL per each day. Thereafter, the solution of the same concentration was applied to the back area from which the hair was removed twice a week and this process continued for 2 weeks. Further, to alleviate atopic dermatitis induced in this way, the cosmetic cream containing each of BMDA (FMJ-G0) and the derivatives thereof (FMJ-G4, FMJ-G1, FMJ-G2, FMJ-G3) of the present disclosure as prepared above was applied to the back of rats with the induced atopic dermatitis for 2 weeks, and then, changes in skin inflammation were examined.
The experimental results of FIG. 10A and FIG. 10B was obtained as follows as in FIG. 9. The skin tissue was removed from the back of the mouse in the group, and was placed fixedly in 10% formaldehyde for 48 hours, and paraffin pieces were made, and the pieces were thinly sliced so as to have a thickness of 4 μm and was subjected to hematoxylin-esoin staining. Then, whether the damaged skin tissue was recovered by each of BMDA (FMJ-G0) and DMMA (FMJ-G4) was examined using an optical microscope equipped with a Leica application (Leica Microsystems, Switzerland).
To this end, the atopic dermatitis is induced in FIG. 9, and on 2 weeks since the treatment with BMDA (FMJ-G0) and DMMA (FMJ-G4), blood (500 ul) is collected from the hepatic veins of the rats of the above groups, and left at room temperature for 30 minutes. Then, serum was separated and prepared via centrifugation, and then, the IgE concentration related to the allergic reaction was measured through ELISA using the serum thus prepared.
Anti-mouse IgE (Pharmingen, CA, USA) was diluted with PBS (pH 7.4) on a 96-well plate, 100 μL thereof was coated on each 96-well plate, and then left at 4° C. for 12 hours. The plate was washed with PBS containing 0.05% tween. Blocking was performed thereon for 1 hour with PBS containing 1% BSA, 5% sucrose, and 0.05% NaN3. Washing was performed thereon several times using washing buffer. Recombinant IgE and serum were added thereto, and reaction occurred at 37° C. for 2 hours, and each well was washed again, and biotinylated IgE (Pharmingen, CA, USA) was added thereto. Reaction occurred for 2 hours. After washing the well, avidin peroxidase was added thereto and reaction occurred at 37° C. for 30 minutes. Then, the well was washed and then, ABTS solution as a substrate was added thereto. Absorbance was measured at 405 nm using ELISA reader (Epoch2, Biotek, VT, USA).
FIG. 11 show data obtained as follows. The atopic dermatitis was induced as described in FIG. 9, and on 2 weeks since the treatment with BMDA or DMMA (FMJ-G0/G4), a portion of the skin tissue of the rats in the groups were put in Trisol solution and the tissue was crushed in a sonicator. […]

[3] = cosmetic cream (Lidomax ointment 0.15%) applied for 2 weeks, FIG. 9B, 9D

SMILES | phosphorylation of JNK resulting from LPS [1] | phosphorylation of MK2 resulting from LPS [1] | phosphorylation of p38 MAP kinase resulting from LPS [1] | DNCB-induced atopic dermatitis (level of dermatitis) [2] | size of the (inguinal) lymph node [2, 3] | size of the spleen [2, 3]
CCCCCCCCCCCCN(C)Cc1ccccc1 [FMJ-G2, benzyl-dodecyl-methyl-amine] | inhibited | inhibited | inhibited | did not prevent | increased | increased
CCCCCCCCCCN(CC)Cc1ccccc1 [FMJ-G1, Benzyl-decyl-ethyl-amine] | inhibited | inhibited | inhibited | significantly alleviates |  | 
